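Five compound concentrations were applied to cells in 96-well plates for 48 hours; endpoints were derived by simple linear interpolation of the resulting dose-response curve. TGI is the concentration that stops growth completely.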
What was measured:
Experiment in all cases: NCI-60 cell line screen, 48 h
[1] = test system: SK-MEL-2 melanoma
[2] = test system: OVCAR-3 ovarian
[3] = test system: TK-10 renal
[4] = test system: SNB-19 CNS
[5] = test system: CCRF-CEM leukemia
[6] = test system: NCI-H522 lung
[7] = test system: OVCAR-5 ovarian
[8] = test system: M14 melanoma
[9] = test system: KM12 colon
[10] = test system: SNB-75 CNS
[11] = test system: OVCAR-8 ovarian
[12] = test system: K-562 leukemia
[13] = test system: U251 CNS
[14] = test system: DLD-1 colon
[15] = test system: COLO 205 colon
[16] = test system: UACC-257 melanoma
[17] = test system: SR leukemia
[18] = test system: SK-OV-3 ovarian
[19] = test system: HCT-15 colon
[20] = test system: HT29 colon
[21] = test system: NCI-H23 lung
[22] = test system: SN12C renal
[23] = test system: HCC-2998 colon
[24] = test system: NCI-H226 lung
[25] = test system: HOP-92 NSCLC
[26] = test system: MOLT-4 leukemia
[27] = test system: EKVX NSCLC
[28] = test system: SK-MEL-28 melanoma
[29] = test system: A549 NSCLC
[30] = test system: OVCAR-4 ovarian
[31] = test system: SF-295 CNS
[32] = test system: CAKI-1 renal
[33] = test system: MALME-3M melanoma
[34] = test system: RPMI-8226 leukemia
[35] = test system: HCT-116 colon
[36] = test system: KM20L2 colon
[37] = test system: A498 renal
[38] = test system: LXFL 529 NSCLC
[39] = test system: DMS 273 small cell lung
[40] = test system: ACHN renal
[41] = test system: RXF-631 renal
[42] = test system: SNB-78 CNS
[43] = test system: SW-620 colon
[44] = test system: SK-MEL-5 melanoma
[45] = test system: XF 498 CNS
[46] = test system: UO-31 renal
[47] = test system: HOP-18 NSCLC
[48] = test system: NCI-H460 lung
[49] = test system: DMS 114 small cell lung
[50] = test system: RXF 393 renal
[51] = test system: IGROV1 ovarian
[52] = test system: LOX IMVI melanoma
[53] = test system: HOP-62 NSCLC
[54] = test system: 786-0 renal
[55] = test system: M19-MEL melanoma
[56] = test system: UACC-62 melanoma
[57] = test system: HL-60(TB) leukemia
[58] = test system: SF-268 CNS
[59] = test system: SF-539 CNS

COc1cc2c(cc1OC)C1[C@@H](c3ccccc3)OCN1CC2 (stereo partly drawn)
TGI [1]: > 100 µM | TGI [2]: > 100 µM | TGI [3]: > 100 µM | TGI [4]: > 100 µM | TGI [5]: > 100 µM | TGI [6]: > 100 µM | TGI [7]: > 100 µM | TGI [8]: > 100 µM | TGI [9]: > 100 µM | TGI [10]: > 100 µM | TGI [11]: > 100 µM | TGI [12]: > 63.1 µM | TGI [13]: > 100 µM | TGI [14]: > 100 µM | TGI [15]: > 100 µM | TGI [16]: > 100 µM | TGI [17]: > 100 µM | TGI [18]: > 100 µM | TGI [19]: > 100 µM | TGI [20]: > 100 µM | TGI [21]: > 100 µM | TGI [22]: > 100 µM | TGI [23]: > 100 µM | TGI [24]: > 100 µM | TGI [25]: > 100 µM | TGI [26]: > 100 µM | TGI [27]: > 100 µM | TGI [28]: > 100 µM | TGI [29]: > 100 µM | TGI [30]: > 100 µM | TGI [31]: > 100 µM | TGI [32]: > 100 µM | TGI [33]: > 100 µM | TGI [34]: 89.9 µM | TGI [35]: > 100 µM | TGI [36]: > 100 µM | TGI [37]: > 100 µM | TGI [38]: > 100 µM | TGI [39]: > 100 µM | TGI [40]: > 100 µM | TGI [41]: > 100 µM | TGI [42]: > 100 µM | TGI [43]: > 100 µM | TGI [44]: > 100 µM | TGI [45]: > 100 µM | TGI [46]: > 100 µM | TGI [47]: > 100 µM | TGI [48]: > 100 µM | TGI [49]: > 100 µM | TGI [50]: > 100 µM | TGI [51]: > 100 µM | TGI [52]: > 100 µM | TGI [53]: > 100 µM | TGI [54]: > 100 µM | TGI [55]: > 100 µM | TGI [56]: > 100 µM | TGI [57]: > 89.8 µM | TGI [58]: > 100 µM | TGI [59]: > 100 µM

COc1cc(OC)c2c(c1)C(=O)C(CC1(C)OCCCO1)=CC2=O
TGI [1]: 30.1 µM | TGI [2]: 21.4 µM | TGI [3]: 25.1 µM | TGI [4]: 32.4 µM | TGI [5]: 15.4 µM | TGI [6]: 10.6 µM | TGI [7]: 30.6 µM | TGI [8]: 26 µM | TGI [9]: 28.5 µM | TGI [10]: 25.3 µM | TGI [11]: 22.5 µM | TGI [12]: > 69.7 µM | TGI [13]: 31.6 µM | TGI [14]: 17.4 µM | TGI [15]: 27.5 µM | TGI [16]: 25.9 µM | TGI [17]: 7.2 µM | TGI [18]: 34.2 µM | TGI [19]: 16.3 µM | TGI [20]: 28.9 µM | TGI [21]: 27 µM | TGI [22]: 27.2 µM | TGI [23]: 32.2 µM | TGI [24]: 36.3 µM | TGI [25]: 7.73 µM | TGI [26]: 30.6 µM | TGI [27]: 28.6 µM | TGI [28]: 23.8 µM | TGI [29]: 34.4 µM | TGI [30]: 19.7 µM | TGI [31]: 27.8 µM | TGI [32]: 18.8 µM | TGI [33]: 20.5 µM | TGI [34]: 23.3 µM | TGI [35]: 17.7 µM | TGI [36]: 27.7 µM | TGI [37]: 32.3 µM | TGI [38]: 18.7 µM | TGI [39]: 22.5 µM | TGI [40]: 21.6 µM | TGI [41]: 44.5 µM | TGI [42]: 26.6 µM | TGI [43]: 20.3 µM | TGI [44]: 20.9 µM | TGI [45]: 18.4 µM | TGI [46]: 24.1 µM | TGI [47]: 25.7 µM | TGI [48]: 34.7 µM | TGI [49]: 15.8 µM | TGI [50]: 10.4 µM | TGI [51]: 32.2 µM | TGI [52]: 12.8 µM | TGI [53]: 33.4 µM | TGI [54]: 21.5 µM | TGI [55]: 13.9 µM | TGI [56]: 16.2 µM | TGI [57]: 7.88 µM | TGI [58]: 26.9 µM | TGI [59]: 25.6 µM

— PubChem BioAssay (NCI)
